Results from patent US20070197509A1, “Compositions and methods for modulating gated ion channels” (PainCeptor Pharma Corporation, priority 2005, published 2007).

Assays:
[1] = system: hASIC3 (h3) and/or hASIC1a (h1a); experiment: FlexStation/FLIPR assay, channel not marked in the cell; format: cell-based, human; conditions: FlexStation, Table C
Excerpt: (§1) The MES-induced peak calcium response (or change in membrane potential), in the presence of test substance, is expressed relative to the MES response alone. Test substances that block the MES-induced calcium response (or change in membrane potential) are re-tested in triplicates. Confirmed hits are picked for further characterization by performing full dose-response curves to determine potency of each hit compound as represented by the IC50 values (i.e., the concentration of the test substance which inhibits 50% of the MES-induced calcium and/or membrane potentiation response; see, for example, FIG. 1).
(§2) The data shown in Table H was acquired using the FlexStation assay described in Example 1 on HEK293 cells expressing hASIC3 (h3) and/or hASIC1a (h1a).

[2] = molecular target: T1, hASIC1a (Homo sapiens, UniProt P78348); experiment: FlexStation/FLIPR calcium-imaging assay, acid (MES)-induced response in ASIC1a expressing cells; format: cell-based; parameters: expressed in transfected cells
T1 sequence (P78348 1-528): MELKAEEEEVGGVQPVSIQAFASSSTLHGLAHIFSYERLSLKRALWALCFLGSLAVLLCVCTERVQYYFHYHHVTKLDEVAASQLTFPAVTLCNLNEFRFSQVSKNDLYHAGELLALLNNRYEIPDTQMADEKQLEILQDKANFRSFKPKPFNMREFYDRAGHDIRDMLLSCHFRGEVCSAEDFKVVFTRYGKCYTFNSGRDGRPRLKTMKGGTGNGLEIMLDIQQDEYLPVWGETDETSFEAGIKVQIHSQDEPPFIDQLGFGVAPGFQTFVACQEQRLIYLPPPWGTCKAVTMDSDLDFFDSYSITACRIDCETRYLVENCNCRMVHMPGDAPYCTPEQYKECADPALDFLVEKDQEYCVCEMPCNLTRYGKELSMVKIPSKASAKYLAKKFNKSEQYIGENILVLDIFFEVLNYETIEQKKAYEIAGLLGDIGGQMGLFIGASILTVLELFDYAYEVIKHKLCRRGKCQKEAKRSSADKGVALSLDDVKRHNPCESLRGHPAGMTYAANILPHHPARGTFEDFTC
Method: Identification of ASIC Antagonists Using Calcium-Imaging
ASIC1a expressing HEK293 or CHO cells are grown in culture medium (DMEM with 10% FBS), in polystyrene culture flasks ([…]) at 37° C. in a humidified atmosphere of 5% CO2. Confluency of cells should be 80-90% on day of plating. Cells are rinsed with 10 ml of PBS and re-suspended by addition of culture medium and trituration with a 25 ml pipette.
The cells are seeded at a density of approximately 1×10^5 cells/ml for HEK293 and 8×10^4 for CHO cells (100 μl/well) in black-walled, clear bottom, poly-D-lysin pre-treated 96-well plates. Plated cells were allowed to proliferate for 48 h before loading with dye.
Fluo-4/AM (1 mg, Molecular Probes) is dissolved in 912 μl DMSO. The Fluo-4/AM stock solution (1 mM) is diluted with culture medium to a final concentration of 2 μM (loading solution).
The culture medium is aspirated from the wells, and 80 μl of the Fluo-4/AM loading solution is added to each well. The cells are incubated at 37° C. for 30 min. When CHO cells are used, probenicid at 2.5 mM (final concentration) is added in the loading solution.
After the loading period (15-20 min., the loading solution is aspirated and the cells are washed twice with 100 μl modified Assay Buffer (145 mM NaCl, 5 mM KCl, 5 mM CaCl2, 1 mM MgCl2, 10 mM HEPES, pH 7.4) to remove extracellular dye. Following the second wash, 100 μl modified Assay Buffer is added to each well and the fluorescence is measured in FLIPR™ or FlexStation™ (Molecular Devices, USA), or any other suitable equipment known to the skilled in the art. When CHO cells are used, probenicid at 2.5 mM (final concentration) is added in the wash buffer.
First addition: 50 μl test solution at a rate of 26 μl/sec and a starting height of 125 μl
Second addition: 50 μl MES solution (20 mM, 5 mM final concentration) at a rate of 26 μl/sec and a starting height of 115 μl.
Reading intervals: pre-incubation—120 sec. antagonist phase, addition of MES at 145 sec. and reading time with agonist 100 sec (total run time of 240 sec).
Fluorescence obtained after stimulation is corrected for the mean basal fluorescence (in modified Assay Buffer).
as §1

[3] = molecular target: T2, hASIC3 (Homo sapiens, UniProt Q9UHC3); experiment: FlexStation assay on HEK293 cells expressing hASIC3; format: cell-based; parameters: expressed in transfected cells; host or cells: HEK293 cells; conditions: for IC50: FlexStation (Flex), Tables A-F, read-out: Biological Data (IC50 uM) h3 (Flex)
T2 sequence (Q9UHC3 1-531): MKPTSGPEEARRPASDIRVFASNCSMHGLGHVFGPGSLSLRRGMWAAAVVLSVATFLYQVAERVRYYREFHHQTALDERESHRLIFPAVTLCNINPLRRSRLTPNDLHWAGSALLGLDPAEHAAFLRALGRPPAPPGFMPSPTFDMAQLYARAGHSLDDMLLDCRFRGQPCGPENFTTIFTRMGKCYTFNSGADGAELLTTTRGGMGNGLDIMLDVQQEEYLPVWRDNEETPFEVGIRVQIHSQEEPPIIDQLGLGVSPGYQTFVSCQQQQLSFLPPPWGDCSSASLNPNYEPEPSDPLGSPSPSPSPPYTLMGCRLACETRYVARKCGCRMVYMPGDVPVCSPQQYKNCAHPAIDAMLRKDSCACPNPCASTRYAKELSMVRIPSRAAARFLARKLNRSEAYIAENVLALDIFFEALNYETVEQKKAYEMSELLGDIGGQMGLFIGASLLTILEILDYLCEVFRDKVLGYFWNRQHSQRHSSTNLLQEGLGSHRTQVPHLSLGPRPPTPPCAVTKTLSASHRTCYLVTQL
Method: A vial of FMP dye (Molecular Devices) is resuspended in 10.5 ml of assay buffer (48.3 mM NaCl, 93 mM NMDG, 5 mM KCl, 5 mM CaCl2, 1 mM MgCl2, 10 mM HEPES, pH 7.4). The culture medium is aspirated from the wells, and 100 μl of the FMP loading solution is added to each well. The cells are incubated at 37° C. for 30 min.
After the loading period, the loading solution is left on the cells and the membrane potential-induced fluorescence is measured in FLIPR™ or FlexStation™ (Molecular Devices, USA), or any other suitable equipment known to the skilled in the art.
For cells co-expressing ASIC1a and ASIC3 channels (e.g. HEK293 cells), membrane potential dye (FMP dye) is used and the FlexStation settings are as above.
as §1, §2

[4] = system: T3, hASIC3 (h3) and/or hASIC1a (h1a); experiment: FlexStation/FLIPR assay, channel not marked in the cell; format: cell-based, human; conditions: Table H, cells without channel mark; HEK293; read-out: EC50 (μM) Flex/FLIPR
T3 construct: EC50 (μM) in one experiment; HEK293
Excerpt: as §1, §2

[5] = molecular target: T1, hASIC1a; experiment: Whole-cell patch clamp of acid-induced currents in cells transfected with hASIC1a; format: cell-based; parameters: expressed in transfected cells; conditions: Table H
Method: Another example of an in vitro assessment method consists of using mammalian heterologous expression systems, which are known to those skilled in the art, and include a variety of mammalian cell lines such as COS, HEK, e.g., HEK293 and/or CHO, cells. Cell lines are transfected with gated ion channel(s) and used to perform electrophysiology as follows:
All experiments are performed at room temperature (20-25° C.) in voltage clamp using conventional whole cell patch clamp methods (Neher, E., et al. (1978) Pfluegers Arch 375:219-228).
The amplifier used is the EPC-9 (HEKA-electronics, Lambrect, Germany) run by a Macintosh G3 computer via an ITC-16 interface. Experimental conditions are set with the Pulse-software accompanying the amplifier. Data is low pass filtered and sampled directly to hard-disk at a rate of 3 times the cut-off frequency.
Pipettes are pulled from borosilicate glass using a horizontal electrode puller (Zeitz-lnstrumente, Augsburg, Germany). The pipette resistances are 2-3 MOhms in the salt solutions used in these experiments. The pipette electrode is a chloridized silver wire, and the reference is a silver chloride pellet electrode (In Vivo Metric, Healdsburg, USA) fixed to the experimental chamber. The electrodes are zeroed with the open pipette in the bath just prior to sealing.
Coverslips with the cells are transferred to a 15 μl experimental chamber mounted on the stage of an inverted microscope (IMT-2, Olympus) supplied with Nomarski optics. Cells are continuously superfused with extracellular saline at a rate of 2.5 ml/min. After giga-seal formation, the whole cell configuration is attained by suction. The cells are held at a holding voltage of −60 mV and at the start of each experiment the current is continuously measured for 45 s to ensure a stable baseline. Solutions of low pH (<7) are delivered to the chamber through a custom-made gravity-driven flowpipe, the tip of which is placed approximately 50 μm from the cell. Application is triggered when the tubing connected to the flowpipe is compressed by a valve controlled by the Pulse-software. Initially, low pH (in general, pH 6.5) is applied for 5 s every 60 s. The sample interval during application is 550 μs. After stable responses are obtained, the extracellular saline as well as the low-pH solution are switched to solutions containing the compound to be tested. The compound is present until responses of repeatable amplitude are achieved. Current amplitudes are measured at the peak of the responses, and effect of the compounds is calculated as the amplitude at compound equilibrium divided by the amplitude of the current evoked by the pulse just before the compound was included.
The following salt solutions are used: extracellular solution (mM): NaCl (140), KCl (4), CaCl2 (2), MgCl2 (4), HEPES (10, pH 7.4); intracellular solution (mM): KCl (120), KOH (31), MgCl2 (1.785), EGTA (10), HEPES (10, pH 7.2). In general, compounds for testing are dissolved in 50% DMSO at 500 fold the highest concentration used.
CHO cells were transfected with hASIC1a and used to perform full dose-inhibition curves with Compound B, and Compound R. Results are expressed as a fraction of the control peak current obtained in the absence of the test substance.

[6] = molecular target: T1, hASIC1a; experiment: Two-electrode voltage clamp in Xenopus laevis oocytes expressing hASIC1a (OpusExpress); format: cell-based; parameters: expressed in transfected cells; host or cells: Xenopus laevis oocytes, nuclear microinjection of cDNA (e.g. in pCDNA3)
Method: Two-electrode voltage clamp electrophysiological assays in Xenopus laevis oocytes expressing gated ion channels are performed as follows:
Oocytes are surgically removed from adult Xenopus laevis and treated for 2 h at room temperature with 1 mg/ml type I collagenase (Sigma) in Barth's solution under mild agitation. Selected oocytes at stage IV-V are defolliculated manually before nuclear microinjection of 2.5-5 ng of a suitable expression vector, such as pCDNA3, comprising the nucleotide sequence encoding a gated ion channel subunit protein. In such an experiment, the oocytes express homomultimeric proton-gated ion channels on their surface. In an alternate experiment, one, two, three or more vectors comprising the coding sequences for distinct gated ion channel subunits are co-injected in the oocyte nuclei. In the latter case, oocytes express heteromultimeric proton-gated ion channels. […] Once impaled with the microelectrodes, oocytes are continuously superfused at 10-12 ml/min with a modified Ringer's solution containing 97 mM NaCl, 2 mM KCl, 1.8 mM CaCl2, and 10 mM HEPES brought to pH 7.4 with NaOH (Control Ringer). Test Ringer solution is prepared by replacing HEPES with MES and adjusting the pH to the desired acidic value. Compounds of the present invention are prepared in both the Control and Test Ringer solutions and applied to oocytes at room temperature through a computer-controlled switching valve system. […] Similarly, recordings can also be acquired in an automated multichannel oocytes system as the OpusExpress™ (Molecular Devices, Sunnyvale, Calif., USA).
Recordings were acquired from oocytes expressing homomeric hASIC1a using a two-electrode voltage-clamp configuration procedure as described herein.

[7] = FlexStation (Flex), Tables A-F, read-out: Biological Data (IC50 uM) h1a (Flex)
[8] = Table H, read-out: IC50 (μM) Opus Express (h1a)

COc1ccc(-c2cc(C(=O)O)c3cc(Cl)ccc3n2)cc1 [Compound 38, 6-chloro-2-(4-methoxy-phenyl)-quinoline-4-carboxylic acid]
Biological Data (Flex), channel not given [1]: Not Active (Flex)

COc1ccc(-c2cc(C(=O)O)c3ccccc3n2)cc1OC [Compound 39, 2-(3,4-Dimethoxy-phenyl)-quinoline-4-carboxylic acid]
Biological Data (Flex), channel not given [1]: Not Active (Flex)

O=C(O)c1cccc(Nc2nc(-c3ccc(Cl)cc3Cl)nc3ccccc23)c1 [Compound 101, 3-[2-(2,4-dichloro-phenyl)-quinazolin-4-ylamino]-benzoic acid]
IC50 [2, 7]: 20 to 30 µM | IC50 [3]: > 50 µM

Brc1ccc(-c2nc(N3CCNCC3)c3ccccc3n2)cc1 [Compound C, 2-(4-bromo-phenyl)-4-piperazin-1-yl-quinazoline]
IC50 ([2]; calcium mobilization assay, HEK293, n=3-7, read-out: FPAT-ASIC1a human/HEK293/k21 IC50): > 20 µM

Cc1cc(N2CCCN(C)CC2)nc2cc(Cl)ccc12 [Compound F, 7-chloro-4-methyl-2-(4-methyl-[1,4]diazepan-1-yl)-quinoline]
EC50 [4]: < 10 µM | IC50 (μM) Patch Clamp (h1a) [5]: Inactive

Clc1ccc2c(N3CCNCC3)ccnc2c1 [Compound H, 7-chloro-4-piperazin-1-yl-quinoline]
IC50 [2, 7]: 2 to 10 µM | EC50 [3]: < 10 µM | IC50 [3]: 5 to 15 µM | IC50 ([6]; OpusExpress (OX), Tables A-F, h1a printed in some cells only, read-out: Biological Data (IC50 uM) h1a (OX)): 30 to 50 µM | IC50 [6, 8]: 43.7 µM

Cc1ccc(-c2nc(Nc3ccc(C(=O)O)cc3)c3ccccc3n2)cc1 [Compound K, 4-(2-p-tolyl-quinazolin-4-ylamino)-benzoic acid]
EC50 [4]: > 10 µM | IC50 (μM) Patch Clamp (h1a) [5]: Inactive | IC50 (μM) Opus Express (h1a) ([6]; Table H): Inactive

COc1ccc(CN2CCN(c3cc(C)nc4ccccc34)CC2)cc1 [Compound Q, 4-[4-(4-methoxy-benzyl)-piperazin-1-yl]-2-methyl-quinoline]
EC50 [4]: < 10 µM | IC50 [3]: 10 to 20 µM | IC50 [6, 8]: > 50 µM
